From ChEMBL document CHEMBL1641371, “Peptide deformylase inhibitors with non-peptide scaffold: synthesis and structure-activity relationships” (Bioorg Med Chem Lett, 2011)
Values after ≈ are worked out from the molar mass of the structure shown.

Tests used:
Moraxella catarrhalis = test: Antimicrobial activity against Moraxella catarrhalis ATCC 43617 after 48 hrs by microtiter plate assay; format: functional; conditions: ATCC 43617, 48 h
Staphylococcus aureus = test: Antimicrobial activity against Staphylococcus aureus ATCC 6538p after 24 hrs by microtiter plate assay; format: functional
Haemophilus influenzae = test: Antimicrobial activity against Haemophilus influenzae ATCC 51907 after 24 hrs by microtiter plate assay; format: functional; conditions: ATCC 51907, 24 h
Peptide deformylase = target: T1, Peptide deformylase (Pseudomonas aeruginosa (strain ATCC 15692 / PAO1 / 1C / PRS 101 / LMG12228), UniProt Q9I7A8); test: Inhibition of Pseudomonas aeruginosa peptide deformylase after 10 mins by fluorescence assay
T1 sequence (Q9I7A8 whole entry): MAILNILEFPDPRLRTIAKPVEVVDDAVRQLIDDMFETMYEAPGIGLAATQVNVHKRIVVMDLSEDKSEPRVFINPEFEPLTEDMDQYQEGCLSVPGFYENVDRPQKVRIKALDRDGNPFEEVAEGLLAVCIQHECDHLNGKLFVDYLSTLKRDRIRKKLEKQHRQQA

Streptococcus pneumoniae = test: Antimicrobial activity against Streptococcus pneumoniae ATCC 6305 after 48 hrs by microtiter plate assay; format: functional; conditions: ATCC 6305, 48 h

SMILES	MIC (Moraxella catarrhalis)	MIC (Staphylococcus aureus)	MIC (Haemophilus influenzae)	IC50 (Peptide deformylase)	MIC (Streptococcus pneumoniae)
CCCC[C@H](CN(O)C=O)C(=O)[C@@H]1CCCN1C(=O)OC(C)(C)C	0.4 µg/mL (≈ 1.17 µM)	12.5 µg/mL (≈ 36.5 µM)	0.4 µg/mL (≈ 1.17 µM)	169 nM	6.3 µg/mL (≈ 18.4 µM)
CCCC[C@H](CN(O)C=O)C(=O)[C@H](NC(=O)OC(C)(C)C)C(C)(C)C	0.1 µg/mL (≈ 0.279 µM)	100 µg/mL (≈ 279 µM)	3.2 µg/mL (≈ 8.93 µM)	603 nM	6.3 µg/mL (≈ 17.6 µM)
CCCC[C@H](CN(O)C=O)C(=O)[C@@H](NC(=O)OC(C)(C)C)C(C)C	0.1 µg/mL (≈ 0.29 µM)	12.5 µg/mL (≈ 36.3 µM)	1.6 µg/mL (≈ 4.65 µM)	183 nM	1.6 µg/mL (≈ 4.65 µM)
CCCC[C@H](CN(O)C=O)C(=O)[C@H](C)NC(=O)OC(C)(C)C	1.6 µg/mL (≈ 5.06 µM)	12.5 µg/mL (≈ 39.5 µM)	0.8 µg/mL (≈ 2.53 µM)	330 nM	3.2 µg/mL (≈ 10.1 µM)
COc1ccccc1NC(=O)N[C@@H](C(=O)N(CC(=O)NO)CC1CCCC1)C(C)(C)C	0.1 µg/mL (≈ 0.23 µM)	50 µg/mL (≈ 115 µM)	0.2 µg/mL (≈ 0.46 µM)	29 nM	0.2 µg/mL (≈ 0.46 µM)
CCCC[C@H](CN(O)C=O)C(=O)[C@@H](NC(=O)c1ccccc1)C(C)C	0.4 µg/mL (≈ 1.15 µM)	3.2 µg/mL (≈ 9.18 µM)	0.2 µg/mL (≈ 0.574 µM)	51 nM	3.2 µg/mL (≈ 9.18 µM)
CCCC[C@H](CN(O)C=O)C(=O)[C@@H](NC(=O)C(C)C)C(C)C	1.6 µg/mL (≈ 5.09 µM)	3.2 µg/mL (≈ 10.2 µM)	0.2 µg/mL (≈ 0.636 µM)	60 nM	0.8 µg/mL (≈ 2.54 µM)
CCCC[C@H](CN(O)C=O)C(=O)[C@@H](NC(=O)c1ccccn1)C(C)C	0.1 µg/mL (≈ 0.286 µM)	1.6 µg/mL (≈ 4.58 µM)	0.1 µg/mL (≈ 0.286 µM)	117 nM	0.2 µg/mL (≈ 0.572 µM)
CCCC[C@H](CN(O)C=O)C(=O)[C@@H](NC(=O)c1cccc(OC)c1)C(C)C	0.8 µg/mL (≈ 2.11 µM)	0.8 µg/mL (≈ 2.11 µM)	0.2 µg/mL (≈ 0.528 µM)	22 nM	0.2 µg/mL (≈ 0.528 µM)
CCCC[C@H](CN(O)C=O)C(=O)[C@@H](NC(=O)c1cccc(F)c1)C(C)C	1.6 µg/mL (≈ 4.37 µM)	1.6 µg/mL (≈ 4.37 µM)	0.2 µg/mL (≈ 0.546 µM)	43 nM	0.4 µg/mL (≈ 1.09 µM)
CCCC[C@H](CN(O)C=O)C(=O)[C@@H](NC(=O)c1cccnc1)C(C)C	0.1 µg/mL (≈ 0.286 µM)	0.8 µg/mL (≈ 2.29 µM)	0.1 µg/mL (≈ 0.286 µM)	73 nM	0.2 µg/mL (≈ 0.572 µM)
CCCC[C@H](CN(O)C=O)C(=O)[C@@H](NC(=O)c1ccncc1)C(C)C	0.1 µg/mL (≈ 0.286 µM)	1.6 µg/mL (≈ 4.58 µM)	0.1 µg/mL (≈ 0.286 µM)	52 nM	0.4 µg/mL (≈ 1.14 µM)
CCCC[C@H](CN(O)C=O)C(=O)[C@@H](NC(=O)c1ccc2ccccc2n1)C(C)C	0.1 µg/mL (≈ 0.25 µM)	0.4 µg/mL (≈ 1 µM)	0.2 µg/mL (≈ 0.501 µM)	8 nM	0.1 µg/mL (≈ 0.25 µM)
CCCC[C@H](CN(O)C=O)C(=O)[C@@H](NC(=O)c1nccc2ccccc12)C(C)C	0.1 µg/mL (≈ 0.25 µM)	6.4 µg/mL (≈ 16 µM)	0.4 µg/mL (≈ 1 µM)	5 nM	0.4 µg/mL (≈ 1 µM)
CCCC[C@H](CN(O)C=O)C(=O)[C@@H](NC(=O)NC(C)C)C(C)C	0.8 µg/mL (≈ 2.43 µM)	1.6 µg/mL (≈ 4.86 µM)	0.1 µg/mL (≈ 0.304 µM)	16 nM	0.4 µg/mL (≈ 1.21 µM)
CCCC[C@H](CN(O)C=O)C(=O)[C@@H](NC(=O)NC1CCCC1)C(C)C	0.1 µg/mL (≈ 0.281 µM)	1.6 µg/mL (≈ 4.5 µM)	0.2 µg/mL (≈ 0.563 µM)	10 nM	1.6 µg/mL (≈ 4.5 µM)
CCCC[C@H](CN(O)C=O)C(=O)[C@@H](NC(=O)Nc1ccccc1)C(C)C	0.1 µg/mL (≈ 0.275 µM)	1.6 µg/mL (≈ 4.4 µM)	0.4 µg/mL (≈ 1.1 µM)	49 nM	0.4 µg/mL (≈ 1.1 µM)
CCCC[C@H](CN(O)C=O)C(=O)[C@@H](NC(=O)Nc1ccccc1OC)C(C)C	0.1 µg/mL (≈ 0.254 µM)	0.8 µg/mL (≈ 2.03 µM)	0.2 µg/mL (≈ 0.508 µM)	41 nM	0.1 µg/mL (≈ 0.254 µM)
CCCC[C@H](CN(O)C=O)C(=O)[C@@H](NC(=O)Nc1ccccc1F)C(C)C	0.1 µg/mL (≈ 0.262 µM)	0.4 µg/mL (≈ 1.05 µM)	0.1 µg/mL (≈ 0.262 µM)	41 nM	0.2 µg/mL (≈ 0.524 µM)
CCCC[C@H](CN(O)C=O)C(=O)[C@@H](NC(=O)Nc1ccccn1)C(C)C	0.1 µg/mL (≈ 0.274 µM)	0.8 µg/mL (≈ 2.2 µM)	0.1 µg/mL (≈ 0.274 µM)	43 nM	1.6 µg/mL (≈ 4.39 µM)
